≈ marks a conversion by molar mass, not a printed value.
Legend:
[1] = system: lesions of gastric mucosa; assay: Test with ethanol containing hydrochloric acid (erosion frequency and erosion index); format: in vivo, Rats; details: for Inhibition of the erosion index Relative activity / Inhibition of the erosion frequency Relative activity: ED50 of cetraxate divided by ED50 of the compound tested; for ED50: Rattus norvegicus, po, read-out: Inhibition of the erosion frequency ED50 p.o.; for ED50 / Inhibition of the erosion index ED50 p.o.: rats, peroral, conc. hydrochloric acid/absolute ethanol 1 to 50
Excerpt: The principle of the method consists in that, simultaneously with the administration of absolute ethanol, hydrochloric acid is introduced to the stomach. Thus, the influence on systemic gastric acid inhibition action can be eliminated by the presence of the exogenous acid.
The reagent used in this test was a mixture of concentrated aqueous hydrochloric acid and absolute ethanol in a weight ratio of 1 to 50 in accordance with the dilution ratio used by Yamazaki et al. (Japan J. Pharmacol., 55 [1991], 415 to 424). In other respects, the experiment was performed as described under test 2.1., however, in addition to the erosion index calculated from the lenghts of the erosions in mm, the ratio of occurence of animals showing at least one gastric erosion within a test group, i.e. the erosion frequency, was also evaluated.

[2] = system: lesions of gastric mucosa; assay: Test with absolute ethanol (gastric mucosa lesions, erosion index); format: in vivo, Rats; details: for Relative activity related to the inhibition of the free acid: gastroprotective action (absolute ethanol test) compared to the gastric acid inhibiting activity (Shay test, rats, p.o.); for activity in the test with absolute ethanol: result in words
Description: Rats of both sexes weighing 200 to 250 g, each previously starved for 24 hours, were used in this experiment. […] After one hour following the administration, the animals were killed by an overdose of ether, the stomach was excised and the alterations of gastric mucosa were examined. The lengths of the erosions were measured and summarized (expressed in mm) for each stomach to obtain the erosion index by calculating the average value of the group. The inhibition was calculated in percentage by comparing the value of the group treated with ethanol to that of the control group treated only with the vehicle. Various doses of the compounds to be tested were administered, perorally, in a volume of 5 ml/kg using a pretreatment time of 60 minutes. Eight rats were used for each dose. (A. Robert, Gastroenterology 77 [1979], 761 to 767). In the test with absolute ethanol which is useful for showing the gastroprotective activity, as to the effective dose range, a sharp difference can be made between the cytoprotective effect and the gastric acid inhibition, the latter resulting in the inhibition of the gastric erosion.

[3] = Acute toxicity (LD50, Litchfield and Wilcoxon); details: mouse, in vivo, po; NMRI mice of both sexes, peroral, 7 days observation; "higher than" = highest dose administered without any death
Description: The acute toxicity was determined on NMRI strain mice of both sexes weighing 20 to 25 g each by using 6 animals for each dose. The compounds to be tested were administered perorally in a volume of 20 ml/kg, the highest dose applied was 1 000 mg/kg. After the administration the animals were kept under usual laboratory conditions for 7 days. The LD50 values were calculated according to the method of Litchfield and Wilcoxon (J. Pharmacol. Exp. Ther., 96 [1949], 99).
The data given as "higher than" a certain value mean the highest dose administered without noting any death of animals.

gastric acid secretion = assay: Effect on the gastric acid secretion (Shay's method, pylorus ligation); format: in vivo, Wistar rats; details: test according to Shay, result in words
Description: The influence of the compounds on the gastric acid secretion was examined on starved Wistar rats of both sexes weighing 180 to 240 g each by using Shay's method (H. Shay et al., Gastroenterology, 5 [1945], 45). The compounds to be tested were given, perorally, 3 hours before the ligation of the pylorus. Four hours after the operation, the animals were killed by an overdose of ether, the stomach was excised, the stomach content was centrifuged and the free hydrochloric acid content of the gastric juice was determined by titration in the presence of Töpfer's reagent. The percentage of inhibition and then the ED50 values were determined by calculating average values for the groups and comparing those to the average values for the control group.

Helicobacter pylori = assay: Antibacterial effect on Helicobacter pylori (MIC on blood agar); format: cell-based; details: for MIC: Helicobacter pylori, 72 h, 37°C
Description: Helicobacter pylori strains used in these experiments were obtained from the biopsial samples of the stomachs of patients suffering from ulcerative diseases of the gastrointestinal system. From the pure culture of isolates a thick suspension was prepared with cysteine-inositol solution suitable for lyophilisation, and the suspension obtained was maintained in cold-resistant plastic ampoules in a deep-freezing chamber at a temperature of about -196°C. For the determination of the inhibitory effect of the compounds tested on Helicobacter pylori, blood agar containing 10 mg/litre of a stereoisomer of 23-[aminocarbonyl]-12-[{2-0-(3-amino-2,3,6-trideoxy-3-C-methyl-α-L-lyxo-hexopyranosyl)-β-D-glucopyranosyl}-oxy]-8,16-di-[chloro]-2,3,4,5,19,20,21,22,23,24,25,26,27,28,29,30-hexa-[decahydro]-5,19,34,36,38-penta-[hydroxy]-28-[{4-(methyl)-2-(methylamino)-1-(oxo)-pentyl}-amino]-3,21,25,28,41-penta-[oxo]-1H-6,9:15,18-[dietheno]-4,30-[iminomethano]-31,35-[metheno]-11,27,13-[[1]-propene[1,2]diyl[3]ylidene]-13H-10,14,2,22,26,29-benzodioxatetraazacycloheptatriacontine-1-carboxylic acid 〈vancomycin〉 and 25 mg/litre of [1R-(1R^x,3S^x,5R^x,6R^x,9R^x,11R^x,15S^x,16R^x,17R^x,18S^x,19E,21E,23E,25E,27E,29E,31E,33R^x,35S^x,36R^x,37S^x)]-33-[{3-(amino)-3,6-di-(deoxy)-β-D-mannopyranosyl}-oxy]-1,3,5,6,9,11,17,37-octa-[hydroxy]-15,16,18-tri-[methyl]-13-[oxo]-14,39-di-[oxa]-bicyclo-[33.3.1]-nonatriaconta-19,21,23,25,27,29,31-heptaene-36-carboxylic acid 〈amphotericin B〉 was used (C. A. M. McNulty and I. C. Dent: Susceptibility of clinical isolates of Campylobacter pylori to twenty one antimicrobial agents. Book of Abstracts, 4th European Congress of Clinical Microbiology, Nice [1989]).
The plates containing the strains were cultivated at 37°C for 72 hours under a gaseous atmosphere containing 10% of carbon dioxide and 5% of oxygen (D. M. Jones et al., J. Clin. Pathol., 37 [1984], 1 002).
The culture media were inoculated with a dilution of the broth culture of the strains grown overnight or with a suspension prepared from a culture obtained on a solid medium. About 10^5 of germs were applied to the surface of each plate.
A series of dilution were prepared from the compound to be tested. The MIC (minimal inhibiting concentration) value of the compounds tested was considered to be the lowest concentration inhibiting the growth of the test organism completely. The results obtained for (R,S)-2-(E)-[4'-(chloro)-phenylmethylene]-1-(E)-[3''-(hexylamino)-2''-(hydroxy)-propoxy-imino]-cyclohexane and colloidal bismuth subcitrate used as reference are given in Table IVa.

| Compound | Inhibition of the erosion index Relative activity [1] | ED50 [1] [mg/kg] | Inhibition of the erosion index ED50 p.o. [1] [mg/kg] | Relative activity related to the inhibition of the free acid [2] | LD50 at 168 h [3] [mg/kg] | Inhibition of the erosion frequency Relative activity [1] | further results |
| --- | --- | --- | --- | --- | --- | --- | --- |
| OC(CNC1CCCCC1)CO/N=C1\CCCC\C1=C/c1ccc(Cl)cc1 (racemic) [(R,S)-2-(E)-[4'-(Chloro)-phenylmethylene]-1-(E)-[3''-(cyclohexylamino)-2''-(hydroxy)-propoxy-imino]-cyclohexane] | 2.1 | 30 to 60 | 10.3 | 30.0 | > 1000 |  |  |
| COc1ccc2[nH]c([S+]([O-])Cc3ncc(C)c(OC)c3C)nc2c1 (stereo not shown) [omeprazole, 5-[Methoxy]-2-[{4-(methoxy)-3,5-di-(methyl)-2-pyridyl}-methylsulfinyl]-benzimidazole, reference compound] |  |  |  |  |  |  | LD50 at 7 days [3]: > 4000 mg/kg |
| CCCCCCNCC(O)CO/N=C1\CCCC\C1=C/c1ccccc1 (racemic) [(R,S)-2-(E)-[Phenylmethylene]-1-(E)-[3'-(hexylamino)-2'-(hydroxy)-propoxy-imino]-cyclohexane] | 1.9 | 25.7 | 11.5 | about 250.0 | > 1000 | 7.4 |  |
| NC[C@H]1CC[C@H](C(=O)Oc2ccc(CCC(=O)O)cc2)CC1 [cetraxate, 3-[4-{Trans-4-(aminomethyl)-cyclohexylcarbonyloxy}-phenyl]-propionic acid, reference compound] | 1.0 | 189 | 22.0 |  |  | 1.0 | activity in the test with absolute ethanol [2]: nearly identical low activity; LD50 at 7 days [3]: > 1000 mg/kg; gastric acid secretion inhibition (gastric acid secretion): only a moderate gastric acid secretion inhibition |
| CN(CC(O)CO/N=C1\CCCC\C1=C/c1ccc(Cl)cc1)C1CCCCC1 (racemic) [(R,S)-2-(E)-[4'-(Chloro)-phenylmethylene]-1-(E)-[3''-{N-(methyl)-N-(cyclohexyl)-amino}-2''-(hydroxy)-propoxy-imino]-cyclohexane] |  |  |  |  | > 1000 |  |  |
| CC(C)N(CC(O)CO/N=C1\CCCC\C1=C/c1ccc(Br)cc1)C(C)C (racemic) [(R,S)-2-(E)-[4'-(Bromo)-phenylmethylene]-1-(E)-[3''-(diisopropylamino)-2''-(hydroxy)-propoxy-imino]-cyclohexane] | 3.7 | 19.1 | 5.9 | about 25.0 | 1000 | 9.9 |  |
| the basic aluminum salt of saccharose hydrogen sulfate [sucralfate, reference compound] |  |  |  |  |  |  | activity in the test with absolute ethanol [2]: nearly identical low activity |
| CN(C)CC(O)CO/N=C1\CCCC\C1=C/c1ccc(Cl)cc1 (racemic) [(R,S)-2-(E)-[4'-(Chloro)-phenylmethylene]-1-(E)-[3''-(dimethylamino)-2''-(hydroxy)-propoxy-imino]-cyclohexane] | 1.4 | 30 to 60 | 15.8 |  | > 1000 |  |  |
| CCCCCCNCC(O)CO/N=C1\CCCC\C1=C/c1ccc(Cl)cc1 (racemic) [(R,S)-2-(E)-[4'-(Chloro)-phenylmethylene]-1-(E)-[3''-(hexylamino)-2''-(hydroxy)-propoxy-imino]-cyclohexane] | 3.1 | 25.2 | 7.2 | 25.0 | > 1000 | 7.5 | MIC (Helicobacter pylori; Helicobacter pylori strain 867/90): 1.9 µg/mL (≈ 4.83 µM); MIC (Helicobacter pylori; Helicobacter pylori strain 1596): 0.9 µg/mL (≈ 2.29 µM); MIC (Helicobacter pylori; Helicobacter pylori strain 3842): 1.9 µg/mL (≈ 4.83 µM); MIC (Helicobacter pylori; Helicobacter pylori strain 6656): 1.9 µg/mL (≈ 4.83 µM); MIC (Helicobacter pylori; Helicobacter pylori strain 6709): 1.9 µg/mL (≈ 4.83 µM); effectiveness against Helicobacter pylori (Helicobacter pylori; compared with colloidal bismuth subcitrate, result in words): substantially more effective in the test than the colloidal bismuth subcitrate |
